According to US20250360142A1, “NOVEL ATP-SENSITIVE POTASSIUM CHANNEL POTENTIATORS, THEIR PREPARATION AND USE” (RHYTHM PHARMACEUTICALS, INC., priority 2022, published 2025):
pIC50: −log10 of the molar value.

What was measured:
EndoC-βH1 Cell Line = experiment: GSIS assay in EndoC-βH1 cell line; format: cell-based
Procedure: (§1) INS-1E, rat pancreatic tumor (insulinoma) cells were used in the GSIS assay. INS-1E cells were thawed and incubated in culture medium (CM) (RPMI 1640+Glucose q.s., HEPES 25 mM, Na-Pyruvat 1 mM, 2-Mercaptoethanol 50 μM, Fetal Calf Serum; heat inactivated (FCS) 10%, Penicillin/Streptomycin 100 U/ml) at 37° C.; 5% CO2 in a humidified atmosphere. 96 welled plates are coated with Matrigel by incubating the plates with 1 ml pre-diluted 1:10 with cold basal medium with 100 μl/well at 37° C. for 1 hour. Matrigel is then removed and replaced with 100 μl CM. Cells are then seeded into the wells as 70 000 cells/well. CM is refreshed with 200 μl fresh CM on the third day. CM is refreshed again with 200 μl fresh CM on the sixth day. GSIS assay is performed on the seventh day and cells in wells are washed with PKrebs®BSA and incubated with 100 μL/well for 2 h. Secretion plates are placed in an incubator at 37° C., 5% C02 and saturated humidity for 60 min. Meanwhile, lysis solution is prepared by adding 1 tablet of protease inhibitor/10 mL TETG solution and kept at 4° C. until the end of the experiment. The other incubation buffers are prepared without adding pharmacological compounds, aliquoted and then placed in a water bath at 37° C. The samples are prepared including negative (βKrebs®B0=0 mM Glucose) and positive controls (PKrebs®B20=20 mM Glucose) and each compound to be tested is diluted in DMSO as having a series of final concentration including 10.00, 4.00, 1.60, 0.64, 0.26, 0.10, 0.04, 0.02 μM.
(§2) After 2 hours of starvation, glucose stimulation and treatments are initiated. KRB Buffer from cells is removed by pipetting. The solutions are homogenized and the cells are treated with 90 µL/well. 10 μl from 10-fold compound dilution is added to the assay plate (final 100 μl/well) according to the following layout for each compound to be tested.
(§3) Incubation time is 40 minutes. Plates are placed in an incubator at 37° C., 5% CO2 and saturated humidity. After incubation, 80 μL of supernatants are collected without disrupting the cell layer and stored at 4° C. or on ice until centrifugation. Remaining medium are removed from each well and 100 μL/well of cold lysis solution is added and incubated for minimum 2 minutes at room temperature. Cell lysis is observed under microscope and waited for maximum for 5 more minutes until the lysis is complete. Cell lysates are collected and all samples including supernatants are centrifuged at 700×g, 5 min at 4° C. 30 μL of each samples are transferred into aliquots for ELISA. ELISA is performed with HTRF Assay Kit comprising an insulin high range kit supplied by Cisbio/Perkin Elmer. 5 μl of each Insulin standard and 5 μl of either supernatant or lysate are transferred on HTRF plate. 40 μl/well of Anti-insulin—XL665 and 20 μl/well of Anti-insulin—EU are added to each well and the plate is read on HTRF compatible reader (fluorescence 620 nm & 665 nm).
GSIS experiments were also performed in other cell lines, e.g., EndoC-βH1, a canonical cell line for screening new therapeutic compounds.

INS-1E cells = experiment: Glucose stimulated insulin secretion assay (GSIS) in INS-1E cells; format: cell-based, rat; settings: for % inhibition of Insulin (Average Inhibition (%)) / pIC50: INS-1E cell line
Procedure: as §1, §2, §3

SMILES	pIC50 (EndoC-βH1 Cell Line)	% inhibition of Insulin (Average Inhibition (%)) (INS-1E cells)	pIC50 (INS-1E cells; Rattus norvegicus)	inhibition at 10 µM (INS-1E cells; Rattus norvegicus, INS-1E cells, 10 μM)
C[C@@H]1CC1NC1=NS(=O)(=O)c2cc(F)c(Cl)cc2N1 (mixture of isomers) [Compound 25, (rac)-trans-6-chloro-7-fluoro-3-((2-methylcyclopropyl)amino)-4H-benzo[e][1,2,4|thiadiazine 1,1-dioxide]	5.70 to 6.00	C (C is equal to 10-25% inhibition)	–	–
O=S1(=O)N=C(NC23CC(F)(C2)C3)Nc2cc(Cl)c(F)cc21 [Compound 19, 6-chloro-7-fluoro-3-((3-fluorobicyclo[1.1.1]pentan-1-yl)amino)-4H-benzo[e][1,2,4]thiadiazine 1,1-dioxide]	≤ 5.70	C (C is equal to 10-25% inhibition)	–	–
O=S1(=O)N=C(NC2CC23CCC3)Nc2cc(Cl)c(F)cc21 (stereo not drawn) [Compound 15, 6-chloro-7-fluoro-3-(spiro[2.3]hexan-1-ylamino)-4H-benzo[e][1,2,4]thiadiazine 1,1-dioxide]	> 6.30	–	> 6.30	–
O=S1(=O)N=C(NC23CC(C2)C3)Nc2cc(Cl)c(F)cc21 [Compound 14, 3-(bicyclo[1.1.1]pentan-1-ylamino)-6-chloro-7-fluoro-4H-benzo[e][1,2,4] thiadiazine 1,1-dioxide]	> 6.30	–	> 6.30	≥ 50%
